*1 amine or outer side, *2 acyl side, *3 side chain or, on linkers, in order; H or OH if unused. Where a SMILES comes first, the peptide text is derived from it. Side-chain parts run from the residue outwards. The star is where a group is joined. γGlu = O=C(O)[C@H](CCC(=O)[*:2])N[*:1]; εLys = N[C@@H](CCCCN[*:1])C(=O)[*:2]; Butyryl = CCCC(=O)*
Target: T1, glucagon receptor (Homo sapiens, UniProt P47871)
T1 construct: expressed in transfected cells
Assay: Assay (I) Glucagon activity (cAMP biosensor, FLIPR)
Assay type: cell-based
Details: HEK-293 cells with cloned glucagon receptor and cAMP biosensor; end point after 6 minutes
Summary of the method: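 HEK-293 cells expressing glucagon receptor with membrane cAMP biosensor (ACTOne), calcium-dye loaded with probenecid and a PDE inhibitor.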

T1 sequence (P47871 26-477): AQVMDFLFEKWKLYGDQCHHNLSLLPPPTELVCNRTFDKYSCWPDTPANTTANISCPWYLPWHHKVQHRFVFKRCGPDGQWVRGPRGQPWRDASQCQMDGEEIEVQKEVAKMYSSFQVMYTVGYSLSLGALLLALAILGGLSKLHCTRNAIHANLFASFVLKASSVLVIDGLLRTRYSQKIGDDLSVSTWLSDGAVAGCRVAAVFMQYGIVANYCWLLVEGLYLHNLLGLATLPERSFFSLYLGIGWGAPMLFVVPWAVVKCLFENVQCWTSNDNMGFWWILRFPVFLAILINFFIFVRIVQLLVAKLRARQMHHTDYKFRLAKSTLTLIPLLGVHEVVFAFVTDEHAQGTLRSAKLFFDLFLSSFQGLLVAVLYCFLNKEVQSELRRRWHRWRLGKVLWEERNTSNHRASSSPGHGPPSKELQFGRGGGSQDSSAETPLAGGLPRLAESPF

EC50 [pM]	Structure (SMILES)
20	CC(=O)N[C@@H](CCC(=O)N[C@@H](CCC(=O)N[C@@H](CCC(=O)N[C@@H](CCC(=O)NCCCC[C@H](NC(=O)[C@@H](NC(=O)[C@H](Cc1ccccc1)NC(=O)[C@H](CC(=O)O)NC(=O)[C@H](C)NC(=O)[C@H](C)NC(=O)[C@H](CCCNC(=N)N)NC(=O)[C@H](CCCNC(=N)N)NC(=O)[C@H](CC(C)C)NC(=O)[C@H](CC(=O)O)NC(=O)[C@H](CC(C)C)NC(=O)[C@H](Cc1ccc(O)cc1)NC(=O)[C@H](CCCNC(=N)N)NC(=O)[C@H](CO)NC(=O)[C@H](Cc1ccc(O)cc1)NC(=O)[C@H](CC(=O)O)NC(=O)[C@H](CO)NC(=O)[C@@H](NC(=O)[C@H](Cc1ccccc1)NC(=O)[C@@H](NC(=O)CNC(=O)[C@H](CCC(N)=O)NC(=O)[C@H](CO)NC(=O)[C@@H](N)Cc1c[nH]cn1)[C@@H](C)O)[C@@H](C)O)C(C)C)C(=O)N[C@@H](Cc1c[nH]c2ccccc12)C(=O)N[C@@H](CC(C)C)C(=O)N[C@@H](CC(C)C)C(=O)N[C@@H](CO)C(=O)N[C@H](C(=O)O)[C@@H](C)O)C(=O)O)C(=O)O)C(=O)O)C(=O)O [Example 56, N^ε24-[(4S)-4-[[(4S)-4-[[(4S)-4-[[(4S)-4-acetamido-4-carboxybutanoyl]amino]-4-carboxybutanoyl]amino]-4-carboxybutanoyl]amino]-4-carboxybutanoyl]-[Arg^12,Leu^16,Ala^20,Lys^24,Leu^27,Ser^28]-Glucagon] (H-HSQGTFTSDYSRYLDLRRAADFVK([γGlu-γGlu-γGlu-γGlu-Ac])WLLST-OH)
17	CC(=O)N[C@@H](CCC(=O)N[C@@H](CCC(=O)N[C@@H](CCC(=O)N[C@@H](CCC(=O)NCCCC[C@H](NC(=O)[C@@H](NC(=O)[C@H](Cc1ccccc1)NC(=O)[C@H](CC(=O)O)NC(=O)[C@H](CCC(=O)O)NC(=O)[C@H](C)NC(=O)[C@H](CCCNC(=N)N)NC(=O)[C@H](CCCNC(=N)N)NC(=O)[C@H](CC(C)C)NC(=O)[C@H](CC(=O)O)NC(=O)[C@H](CC(C)C)NC(=O)[C@H](Cc1ccc(O)cc1)NC(=O)[C@H](CCCNC(=N)N)NC(=O)[C@H](CO)NC(=O)[C@H](Cc1ccc(O)cc1)NC(=O)[C@H](CC(=O)O)NC(=O)[C@H](CO)NC(=O)[C@@H](NC(=O)[C@H](Cc1ccccc1)NC(=O)[C@@H](NC(=O)CNC(=O)[C@H](CCC(N)=O)NC(=O)[C@H](CO)NC(=O)[C@@H](N)Cc1c[nH]cn1)[C@@H](C)O)[C@@H](C)O)C(C)C)C(=O)N[C@@H](Cc1c[nH]c2ccccc12)C(=O)N[C@@H](CC(C)C)C(=O)N[C@@H](CC(C)C)C(=O)N[C@@H](CO)C(=O)N[C@H](C(=O)O)[C@@H](C)O)C(=O)O)C(=O)O)C(=O)O)C(=O)O [Example 57, N^ε24-[(4S)-4-[[(4S)-4-[[(4S)-4-[[(4S)-4-acetamido-4-carboxybutanoyl]amino]-4-carboxybutanoyl]amino]-4-carboxybutanoyl]amino]-4-carboxybutanoyl]-[Arg^12,Leu^16,Glu^20,Lys^24,Leu^27,Ser^28]-Glucagon] (H-HSQGTFTSDYSRYLDLRRAEDFVK([γGlu-γGlu-γGlu-γGlu-Ac])WLLST-OH)
13	CC(=O)N[C@@H](CCC(=O)N[C@@H](CCC(=O)N[C@@H](CCC(=O)N[C@@H](CCC(=O)NCCCC[C@H](N)C(=O)NCCCC[C@H](NC(=O)[C@H](CC(=O)O)NC(=O)[C@H](CC(C)C)NC(=O)[C@H](Cc1ccc(O)cc1)NC(=O)[C@H](CCCCN)NC(=O)[C@H](CO)NC(=O)[C@H](Cc1ccc(O)cc1)NC(=O)[C@H](CC(=O)O)NC(=O)[C@H](CO)NC(=O)[C@@H](NC(=O)[C@H](Cc1ccccc1)NC(=O)[C@@H](NC(=O)CNC(=O)[C@H](CCC(N)=O)NC(=O)[C@H](CO)NC(=O)[C@@H](N)Cc1c[nH]cn1)[C@@H](C)O)[C@@H](C)O)C(=O)N[C@@H](CCCNC(=N)N)C(=O)N[C@@H](C)C(=O)N[C@@H](C)C(=O)N[C@@H](CCC(N)=O)C(=O)N[C@@H](CC(=O)O)C(=O)N[C@@H](Cc1ccccc1)C(=O)N[C@H](C(=O)N[C@@H](CCC(N)=O)C(=O)N[C@@H](Cc1c[nH]c2ccccc12)C(=O)N[C@@H](CC(C)C)C(=O)N[C@@H](CC(C)C)C(=O)N[C@@H](CO)C(=O)N[C@H](C(N)=O)[C@@H](C)O)C(C)C)C(=O)O)C(=O)O)C(=O)O)C(=O)O [Example 59] (H-HSQGTFTSDYSKYLDK([εLys-γGlu-γGlu-γGlu-γGlu-Ac])RAAQDFVQWLLST-NH2)
52	CC(=O)N[C@@H](CCC(=O)N[C@@H](CCC(=O)N[C@@H](CCC(=O)N[C@@H](CCC(=O)NCCCC[C@H](NC(=O)[C@@H](NC(=O)[C@H](Cc1ccccc1)NC(=O)[C@H](CC(=O)O)NC(=O)[C@H](C)NC(=O)[C@H](C)NC(=O)[C@H](CCCNC(=N)N)NC(=O)[C@H](CCCNC(=N)N)NC(=O)[C@H](CC(C)C)NC(=O)[C@H](CC(=O)O)NC(=O)[C@H](CC(C)C)NC(=O)[C@H](Cc1ccc(O)cc1)NC(=O)[C@H](CCCCN)NC(=O)[C@H](CO)NC(=O)[C@@H](NC(=O)[C@H](CC(=O)O)NC(=O)[C@H](CO)NC(=O)[C@@H](NC(=O)[C@H](Cc1ccccc1)NC(=O)[C@@H](NC(=O)CNC(=O)[C@H](Cc1c[nH]cn1)NC(=O)[C@H](C)NC(=O)[C@@H](N)Cc1c[nH]cn1)[C@@H](C)O)[C@@H](C)O)C(C)C)C(C)C)C(=O)N[C@@H](Cc1c[nH]c2ccccc12)C(=O)N[C@@H](CC(C)C)C(=O)N[C@@H](CC(C)C)C(=O)N[C@@H](CO)C(=O)N[C@H](C(=O)O)[C@@H](C)O)C(=O)O)C(=O)O)C(=O)O)C(=O)O [Example 62, N^ε24-[(4S)-4-[[(4S)-4-[[(4S)-4-[[(4S)-4-acetamido-4-carboxybutanoyl]amino]-4-carboxybutanoyl]amino]-4-carboxybutanoyl]amino]-4-carboxybutanoyl]-[Ala^2,His^3,Val^10,Leu^16,Ala^20,Lys^24,Leu^27,Ser^28]-Glucagon] (H-HAHGTFTSDVSKYLDLRRAADFVK([γGlu-γGlu-γGlu-γGlu-Ac])WLLST-OH)
21	CCCC(=O)N[C@@H](CCC(=O)N[C@@H](CCC(=O)N[C@@H](CCC(=O)N[C@@H](CCC(=O)NCCCC[C@H](NC(=O)[C@@H](NC(=O)[C@H](Cc1ccccc1)NC(=O)[C@H](CC(=O)O)NC(=O)[C@H](C)NC(=O)[C@H](C)NC(=O)[C@H](CCCNC(=N)N)NC(=O)[C@H](CCCNC(=N)N)NC(=O)[C@H](CC(C)C)NC(=O)[C@H](CC(=O)O)NC(=O)[C@H](CC(C)C)NC(=O)[C@H](Cc1ccc(O)cc1)NC(=O)[C@H](CCCNC(=N)N)NC(=O)[C@H](CO)NC(=O)[C@H](Cc1ccc(O)cc1)NC(=O)[C@H](CC(=O)O)NC(=O)[C@H](CO)NC(=O)[C@@H](NC(=O)[C@H](Cc1ccccc1)NC(=O)[C@@H](NC(=O)CNC(=O)[C@H](CCC(N)=O)NC(=O)[C@H](CO)NC(=O)[C@@H](N)Cc1c[nH]cn1)[C@@H](C)O)[C@@H](C)O)C(C)C)C(=O)N[C@@H](Cc1c[nH]c2ccccc12)C(=O)N[C@@H](CC(C)C)C(=O)N[C@@H](CC(C)C)C(=O)N[C@@H](CO)C(=O)N[C@H](C(=O)O)[C@@H](C)O)C(=O)O)C(=O)O)C(=O)O)C(=O)O [Example 65, N^ε24-[(4S)-4-[[(4S)-4-[[(4S)-4-[[(4S)-4-(butanoylamino)-4-carboxybutanoyl]amino]-4-carboxybutanoyl]amino]-4-carboxybutanoyl]amino]-4-carboxybutanoyl]-[Arg^12,Leu^16,Ala^20,Lys^24,Leu^27,Ser^28]-Glucagon] (H-HSQGTFTSDYSRYLDLRRAADFVK([γGlu-γGlu-γGlu-γGlu-Butyryl])WLLST-OH)

— patent US20140031278A1, “Novel Glucagon Analogues” (NOVO NORDISK A/S, priority 2011, published 2014)
